Calls of active or inactive are those of the source. No cut-off for these calls is given here.
How the values were obtained:
[1] = test system: MDA-MB-231; assay: Growth inhibition of human MDA-MB-231 cells up to 25 uM by sulforhodamine B assay; assay type: functional, cell-based
[2] = test system: A549; assay: Growth inhibition of human A549 cells up to 25 uM by sulforhodamine B assay; assay type: functional, cell-based
[3] = test system: HT-29; assay: Growth inhibition of human HT-29 cells up to 25 uM by sulforhodamine B assay; assay type: functional, cell-based
[4] = test system: A549; assay: Growth inhibition of human A549 cells by sulforhodamine B assay; assay type: functional
[5] = test system: MDA-MB-231; assay: Growth inhibition of human MDA-MB-231 cells by sulforhodamine B assay; assay type: functional
[6] = test system: HT-29; assay: Growth inhibition of human HT-29 cells by sulforhodamine B assay; assay type: functional; settings: for CC50: read-out: LC50 (the source's name)

Compound | Activity [1] | Activity [2] | Activity [3] | GI50 [4] [µM] | TGI [4] [µM] | CC50 ([4]; read-out: LC50 (the source's name)) [µM] | GI50 [5] [µM] | GI50 [6] [µM] | TGI [6] [µM] | CC50 [6] [µM] | LC50 (50% lethal concentration) [5] [µM] | TGI [5] [µM]
C=C(C)[C@@H]1CC2=C(C=O)C=C(O2)[C@@H]2O[C@@]2(C)C[C@H]2OC(=O)[C@@]3(O[C@H]23)[C@@H](OC(C)=O)C1 | inactive | inactive | inactive |  |  |  |  |  |  |  |  | 
C=C(C)[C@H]1CC2=C(C=O)C=C(O2)[C@H](OC(C)=O)[C@@](C)(OC(C)=O)C[C@@H]2OC(=O)[C@]3(O[C@@H]23)[C@H](OC(C)=O)C1 [7-EPI-7,8-DI-O-ACETYLLOPHODIOL A] |  |  |  | 3.3 | 3.5 | 3.9 | 3.7 | 6.2 | 6.6 | 6.9 |  | 
C=C(C)[C@H]1CC2=C(C=O)C=C(O2)[C@H](O)[C@](C)(O)C[C@@H]2OC(=O)[C@]3(O[C@@H]23)[C@H](OC(C)=O)C1 [LOPHODIOL B] |  |  |  |  |  |  |  | 14.7 |  |  |  | 
C=C(C)[C@@H]1CC[C@]2(C)O[C@H]2CC[C@H](C)/C=C/C=C(/C)C(=O)C1 | inactive | inactive | inactive |  |  |  |  |  |  |  |  | 
CC(=O)OCC1([C@H]2CC3=C(C=O)C=C(O3)[C@H]3O[C@]3(C)C[C@@H]3OC(=O)[C@]4(O[C@@H]34)[C@H](OC(C)=O)C2)CO1 (stereo not given in full) |  |  |  | 5.1 | 6.9 |  | 5.1 | 8.2 |  |  |  | 
C=C(COC(C)=O)[C@H]1CC2=C(C=O)C=C(O2)[C@H]2O[C@]2(C)C[C@@H]2OC(=O)[C@]3(O[C@@H]23)[C@H](OC(C)=O)C1 |  |  |  | 17.9 |  |  | 14.5 |  |  |  |  | 
C=C(C)[C@H]1CC2=C(C=O)C=C(O2)[C@H](O)[C@@](C)(O)C[C@@H]2OC(=O)[C@]3(O[C@@H]23)[C@H](OC(C)=O)C1 [7-EPI-LOPHODIOL A] |  |  |  | 3.9 |  |  | 3.2 | 2.8 | 4.8 |  | 8.5 | 4.6
C=C(C)[C@H]1CC2=C(C=O)C=C(O2)[C@H]2O[C@@]2(C)C[C@@H]2OC(=O)[C@]3(O[C@@H]23)[C@H](OC(C)=O)C1 |  |  |  | 5.3 | 8.4 |  | 4.8 | 5 | 6 | 8.4 |  | 6.2
C=C(C)[C@H]1CC2=C(C=O)C=C(O2)[C@@H](O)[C@@](C)(O)C[C@@H]2OC(=O)[C@]3(O[C@@H]23)[C@H](OC(C)=O)C1 | inactive | inactive | inactive |  |  |  |  |  |  |  |  | 
C=C(C)[C@@H]1CCC2=C[C@H](C[C@@]3(C)O[C@@H]3C(=O)/C=C(\C)C(=O)C1)OC2=O [ISOEPOXYLOPHODIONE] |  |  |  | 2.9 | 5.5 |  | 2.7 | 4.1 | 4.4 | 4.9 | 4.1 | 3.2
CC(=O)O[C@@H]1C[C@@H](C2(C)CO2)CC2=C(C=O)C=C(O2)[C@H]2O[C@]2(C)C[C@@H]2OC(=O)[C@]13O[C@@H]23 (stereo not given in full) |  |  |  | 6 | 9.7 |  | 5.8 | 4.6 | 6.2 | 9.2 |  | 

Source: ChEMBL document CHEMBL1158130, “Cembrane diterpenes from the gorgonian Lophogorgia peruana” (2006)
